Test results from publication PMC9603373 (Microbiology Spectrum, 2022).
Read-outs that look alike come from different tables or passages of the source. Marks after values point to notes of the source that are not given here.

Experiments:
[1] = system: daptomycin nonsusceptible Enterococcus faecium (NTUH688); assay: Rat infective endocarditis model, DNSE; type: in vivo; settings: for blood_cfu / log_blood_cfu / log_veg_cfu / veg_cfu / veg_sterile: DNSE MIC 8, delay 48 h; for Bacterial load in blood / Rate of sterile vegetation / Bacterial load of vegetation: Wistar rat IE, DNSE MIC 8 mg/L, 48 h from inoculation to treatment; for Bacterial load in blood / Bacterial load of vegetation: mean (SD), SD; for Bacterial load in blood / Rate of sterile vegetation: n = 3; for Bacterial load of vegetation: sacrifice 24 h after last dose, n = 3, detection limit 2 log10 CFU/g; for veg_sterile: flag 1/0;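 on all read-outs here: Catheter-induced aortic valve endocarditis in male Wistar rats, treated 3 days, bacteria counted by plating vegetation and blood homogenates on brain heart infusion agar, control rats given phosphate-buffered saline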
Method: Approval for animal use was obtained from the National Taiwan University Institutional Animal Care and Use Committee before the commencement of the experiments. Endocarditis was induced in male Wistar rats weighing ~330 g by using previously developed methodologies with slight modifications ([46]). To expose the right carotid artery for the placement of an intravascular catheter, the animals were anesthetized with 1 μL/g of Zoletil 50 (1 mg/mL) plus Rompun (23.32 mg/mL). A sterile polyethylene catheter (Intramedic PE-10; Clay Adams, Parsippany, NJ, USA) was inserted through a small incision and advanced 4 cm into the left ventricle. The catheter was ligated and left in place for the duration of the experiment. 24 h after the catheter was placed across the aortic valve, the bacterial inoculum, which was presuspended in saline, and 1 mL of 10^8 CFU/mL of VRE were administered intravenously via the tail vein. We evaluated the actual inoculum based on the CFU count. The rats received antibiotic treatment at 24 h or 48 h after the bacterial inoculation.
The animals were treated for 3 days. A group of infected but phosphate-buffered saline-treated rats was used as a control. 24 h after the last treatment, the animals were sacrificed via anesthetic overdose. The aortic valve vegetation and 1 mL of blood were obtained aseptically from the sacrificed animals, weighed, and homogenized in 1 mL of phosphate-buffered saline. Serial dilutions of homogenized tissues were performed, and 100 μL of each dilution, including the undiluted sample, were plated on brain heart infusion agar to enumerate the bacteria. The animals were included in the final analysis only if they survived the entire therapy and if their catheters were found across the aortic valve in the left ventricle. The detection limit of the bacterial load of vegetation was 2 log10 CFU/g.

[2] = system: vancomycin-resistant Enterococcus faecium isolate NTUH664 (DSE); type: cell-based; settings: broth microdilution, cation-adjusted Mueller-Hinton broth + 50 μg/mL calcium
Method: (§1) Blood culture isolates were obtained from a clinical microbiology laboratory. Enterococcus spp. were identified using the Vitek 2 identification system (bioMérieux Inc., La Balme les Grottes, France). The MIC of vancomycin was determined using a Sensititre GPN3F (Trek Diagnostics, West Sussex, England). […] We used cation-adjusted Mueller-Hinton broth (Becton, Dickinson, Le Pont-de-Claix, France) supplemented with 50 μg/mL calcium. The MIC breakpoints were based on the CLSI criteria of interpretation ([15]).

[3] = system: vancomycin-resistant Enterococcus faecium isolate NTUH688 (DNSE); type: cell-based; settings: broth microdilution, cation-adjusted Mueller-Hinton broth + 50 μg/mL calcium
Method: as §1

in vivo = settings: male, Wistar, rat, plasma, SD
Method: The experiments were performed in triplicate. […] Plasma was collected via centrifugation, and the samples were stored at −80°C until analysis.
All of the UHPLC-ESI-MS/MS analyses were performed using an Agilent 1290 UHPLC system coupled with an Agilent 6460 triple quadrupole mass spectrometer (Agilent Technologies, Santa Clara, CA, USA).

[4] = human healthy volunteers, cited from earlier work; for cmax: mean
Method: Therefore, 45 mg/kg s.c. and 90 mg/kg s.c might represent human doses of 8 mg/kg and 12 mg/kg, respectively ([34]). […] Since the efficacy was much more pronounced in the infrequently administered dosing regimens, Cmax/MIC is likely the most predictive ([35], [36]). The selected rat dose from which to simulate the human dose is slightly different from the others ([37][–][39 ...

[5] = 45 mg/kg sc, rat 1 of 3 (row order)
[6] = 45 mg/kg sc, rat 2 of 3 (row order)
[7] = 45 mg/kg sc, rat 3 of 3 (row order)
[8] = 90 mg/kg sc, rat 1 of 3 (row order)
[9] = 90 mg/kg sc, rat 2 of 3 (row order)
[10] = 90 mg/kg sc, rat 3 of 3 (row order)

## CCCCCCCCCC(=O)N[C@@H](Cc1c[nH]c2ccccc12)C(=O)N[C@H](CC(N)=O)C(=O)N[C@@H](CC(=O)O)C(=O)N[C@@H]1C(=O)NCC(=O)N[C@@H](CCCN)C(=O)N[C@@H](CC(=O)O)C(=O)N[C@H](C)C(=O)N[C@@H](CC(=O)O)C(=O)NCC(=O)N[C@H](CO)C(=O)N[C@@H]([C@H](C)CC(=O)O)C(=O)N[C@@H](CC(=O)c2ccccc2N)C(=O)O[C@@H]1C [daptomycin, Daptomycin]
[1]; [5]
  blood_cfu: 180
  log_blood_cfu: 2.26
  log_veg_cfu: 7
  veg_cfu: 5410000
  veg_sterile: 0
[1]; [6]
  blood_cfu: 0
  log_blood_cfu: 0
  log_veg_cfu: 7
  veg_cfu: 7620000
  veg_sterile: 0
[1]; [7]
  blood_cfu: 0
  log_blood_cfu: 0
  log_veg_cfu: 7
  veg_cfu: 13600000
  veg_sterile: 0
[1]; [8]
  blood_cfu: 0
  log_blood_cfu: 0
  log_veg_cfu: 5
  veg_cfu: 80400
  veg_sterile: 0
[1]; [9]
  blood_cfu: 0
  log_blood_cfu: 0
  log_veg_cfu: 5
  veg_cfu: 110000
  veg_sterile: 0
[1]; [10]
  blood_cfu: 0
  log_blood_cfu: 0
  log_veg_cfu: 5.59
  veg_cfu: 390000
  veg_sterile: 0
[1]; 45 mg/kg/day s.c. 3 days
  Bacterial load in blood: 0.75 (1.30) log10 CFU/mL
  Rate of sterile vegetation: 0
[1]; 45 mg/kg/day s.c. 3 days, 45 mg/kg/day
  Bacterial load of vegetation: 6.92 (0.20)^f log10 CFU/g
[1]; 90 mg/kg/day s.c. 3 days
  Bacterial load in blood: 0 (0) log10 CFU/mL
  Rate of sterile vegetation: 0
[1]; 90 mg/kg/day s.c. 3 days, 90 mg/kg/day
  Bacterial load of vegetation: 5.18 (0.36)^g^,^h log10 CFU/g
[2]
  daptomycin MIC: 0.5 µg/mL
[3]
  daptomycin MIC: 8 µg/mL
In vivo; iv, 12 mg/kg
  Tmax: 0.3 h
  cmax: 106000 ng/mL
  half-life: 4.6 h
In vivo; sc, 45 mg/kg
  Tmax: 3.3 h
  cmax: 123000 ng/mL
  half-life: 3 h
In vivo; sc, 90 mg/kg
  Tmax: 3.3 h
  cmax: 178000 ng/mL
  half-life: 2.9 h
[4]; 8 mg/kg i.v.
  AUC0–24: 858.2 (24.9) mg × h/L
[4]; 12 mg/kg i.v.
  AUC0–24: 1,277.4 (19.8) mg × h/L
[4]; daily dose 8 mg/kg i.v.
  cmax: 123.3 (13.0) mg/L
[4]; daily dose 12 mg/kg i.v.
  cmax: 183.7 (13.6) mg/L
